PubChem BioAssay (NCI)
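Values below derive from 48-hour exposures of cells grown in 96-well plates, with endpoints linearly interpolated between the two concentrations bracketing the appropriate inhibition level. TGI: total growth inhibition.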

Columns and labels:
Assay in all cases: DTP human tumour cell line panel, 48 h
HCC-2998 colon = system: HCC-2998 colon
MCF7 breast = system: MCF7 breast
DU-145 prostate = system: DU-145 prostate
HOP-92 NSCLC = system: HOP-92 NSCLC
OVCAR-4 ovarian = system: OVCAR-4 ovarian
NCI-H460 lung = system: NCI-H460 lung
K-562 leukemia = system: K-562 leukemia
MDA-MB-231 breast = system: MDA-MB-231 breast
KM12 colon = system: KM12 colon
M14 melanoma = system: M14 melanoma
MALME-3M melanoma = system: MALME-3M melanoma
RXF 393 renal = system: RXF 393 renal
HCT-15 colon = system: HCT-15 colon
HOP-62 NSCLC = system: HOP-62 NSCLC
HT29 colon = system: HT29 colon
SNB-75 CNS = system: SNB-75 CNS
SK-OV-3 ovarian = system: SK-OV-3 ovarian
RPMI-8226 leukemia = system: RPMI-8226 leukemia
SR leukemia = system: SR leukemia
SF-295 CNS = system: SF-295 CNS
SN12C renal = system: SN12C renal
COLO 205 colon = system: COLO 205 colon
NCI/ADR-RES ovarian = system: NCI/ADR-RES ovarian
A498 renal = system: A498 renal
A549 NSCLC = system: A549 NSCLC
HL-60(TB) leukemia = system: HL-60(TB) leukemia
OVCAR-5 ovarian = system: OVCAR-5 ovarian
OVCAR-8 ovarian = system: OVCAR-8 ovarian
SF-268 CNS = system: SF-268 CNS
MDA-N = system: MDA-N
T-47D breast = system: T-47D breast
TK-10 renal = system: TK-10 renal
ACHN renal = system: ACHN renal
UO-31 renal = system: UO-31 renal
SK-MEL-5 melanoma = system: SK-MEL-5 melanoma
SF-539 CNS = system: SF-539 CNS
SW-620 colon = system: SW-620 colon
SK-MEL-28 melanoma = system: SK-MEL-28 melanoma
MOLT-4 leukemia = system: MOLT-4 leukemia
CCRF-CEM leukemia = system: CCRF-CEM leukemia
NCI-H522 lung = system: NCI-H522 lung
PC-3 prostate = system: PC-3 prostate
EKVX NSCLC = system: EKVX NSCLC
HCT-116 colon = system: HCT-116 colon
UACC-62 melanoma = system: UACC-62 melanoma
HS 578T breast = system: HS 578T breast
IGROV1 ovarian = system: IGROV1 ovarian
LOX IMVI melanoma = system: LOX IMVI melanoma
MDA-MB-435 = system: MDA-MB-435
UACC-257 melanoma = system: UACC-257 melanoma
CAKI-1 renal = system: CAKI-1 renal
U251 CNS = system: U251 CNS
SNB-19 CNS = system: SNB-19 CNS
786-0 renal = system: 786-0 renal
BT-549 breast = system: BT-549 breast
NCI-H23 lung = system: NCI-H23 lung
OVCAR-3 ovarian = system: OVCAR-3 ovarian
SK-MEL-2 melanoma = system: SK-MEL-2 melanoma
NCI-H226 lung = system: NCI-H226 lung

Measured: TGI

CN(C)CCCNC(=O)N/N=C\c1cccc2ccccc12
not listed: MDA-MB-435 | UACC-257 melanoma | CAKI-1 renal | U251 CNS | SNB-19 CNS | 786-0 renal | BT-549 breast | NCI-H23 lung | OVCAR-3 ovarian | SK-MEL-2 melanoma | NCI-H226 lung
> 10 µM: all other assays above

CC(C)(C)OC(=O)NCCCCCCC(=O)Cc1ccccc1
not listed: HL-60(TB) leukemia | SF-539 CNS | UACC-62 melanoma | HS 578T breast
> 100 µM: all other assays above

C=C=C(C)C(=O)N(C(C)C)C(C)C
not listed: KM12 colon | RXF 393 renal | SF-539 CNS | NCI-H522 lung | HS 578T breast | CAKI-1 renal | SK-MEL-2 melanoma
> 100 µM: all other assays above
